Values joined by “and” are separate entries in the source; they are usually repeats but may differ in a detail not shown here. Equal entries are not always repeated.
Assays:
[1] = system: human osteoclast precursor cells derived from bone marrow; test: osteoclast differentiation assay (medium TRACP 5b at day 7); format: cell-based
Experimental: The objective of this study is to investigate the effects of selected test compounds selected on resorbing activity of human osteoclasts in vitro. Bone resorption is studied using a model where human osteoclast precursor cells derived from bone marrow are cultured for 7 days on bovine bone slices and allowed to differentiate into bone-resorbing osteoclasts. […] In each test, a baseline group without test compounds is included to obtain a baseline value. […] The test system can also be modified by adding the test compounds at the beginning of the culture period to study if the test compounds affect osteoclast differentiation. Osteoprotegerin is used as a reference inhibitor of osteoclast differentiation in such cultures.
Appropriate dilutions were made from the stock solution to obtain the desired test concentrations (0.1 nM, 1 nM and 10 nM in osteoclast differentiation assay and 1 nM, 10 nM and 100 nM in osteoclast activity assay).

human osteoclasts [2] = test: osteoclast activity assay (bone resorption on bovine bone slices, CTX/TRACP 5b); format: cell-based; details: for concentration of CTX released from bone collagen into the culture medium: resorption phase days 7-10
Experimental: The objective of this study is to investigate the effects of selected test compounds selected on resorbing activity of human osteoclasts in vitro. Bone resorption is studied using a model where human osteoclast precursor cells derived from bone marrow are cultured for 7 days on bovine bone slices and allowed to differentiate into bone-resorbing osteoclasts. At day 7, the culture medium is changed, the test compounds are added, and the formed mature osteoclasts are allowed to resorb bone in an additional 3-day culture period. Tartrate-resistant acid phosphatase isoform 5b activity (TRACP 5b) is measured from the culture medium collected at day 7 as an index of the number of osteoclasts formed in each well during the differentiation period. After the totally 10 days culture period, C-terminal cross-linked telopeptides of type I collagen (CTX) are quantitated from the culture medium as an index of bone resorption. The results are expressed as the resorption index (CTX at day 10/TRACP 5b at day 7), which describes the mean activity of a single osteoclast. In each test, a baseline group without test compounds is included to obtain a baseline value. […] The test system can also be modified by adding the test compounds at the beginning of the culture period to study if the test compounds affect osteoclast differentiation. Osteoprotegerin is used as a reference inhibitor of osteoclast differentiation in such cultures.
Used herein is a method where osteoclast precursor cells derived from human bone marrow are cultured on bovine bone slices. The cells are first allowed to differentiate into mature bone-resorbing osteoclasts, and the formed osteoclasts are then allowed to resorb bone. The system is ideally suitable for determining the effects of test compounds on bone resorption in vitro. Test compounds are added into the cell cultures after the differentiation period, and their effect on the resorbing activity of mature osteoclasts is determined.
(§1) The bone resorption assay is performed according to the above described Standard Operation Procedure. Shortly, human bone marrow-derived stem cells are suspended to culture medium and allowed to attach to bovine bone slices. The bone slices are transferred into 96-well tissue culture plates containing culture medium with appropriate amounts of important growth factors favoring osteoclast differentiation, including M-CSF, RANK-ligand and TGF-beta. The cells are incubated in a CO2 incubator in humidified atmosphere of 95% air and 5% carbon dioxide at 37° C. At day 7 when osteoclast differentiation is completed, the culture medium is replaced with culture medium containing conditions favoring osteoclast activity, and the test compounds are added. The cell culture is continued for an additional three days, during which the formed mature osteoclasts are allowed to resorb bone in the presence of vehicle, control inhibitor (E64) or test compounds at different concentrations. Tartrate-resistant acid phosphatase isoform 5b activity (TRACP 5b) is measured from the culture medium collected at day 7 using the BoneTRAP® assay (SBA-Sciences, Oulu, Finland). Medium TRACP 5b activity describes the number of osteoclasts formed in each well during the differentiation period. At the end of the culture period, C-terminal cross-linked telopeptides of type I collagen (CTX) released from the bone slices are quantitated as an index of bone resorption using CrossLaps® for culture assay (Nordic Bioscience, Herlev, Denmark). The results are expressed as the resorption index (CTX at day 10/TRACP 5b at day 7), which describes the mean activity of a single osteoclast. When necessary, the ToxiLight® assay (Cambrex, East Rutherford, N.J., USA) is used to detect cytotoxic effects of test compounds.
Two separate experiments were performed in this study, an osteoclast differentiation assay and an osteoclast activity assay.

human osteoclasts [3] = test: cytotoxicity in human osteoclast activity assay (luminescence released from dying cells); details: day 10; for Cytotoxicity, % compared with baseline group: baseline mean = 100%
Experimental: as §1
Two separate experiments were performed in this study, an osteoclast differentiation assay and an osteoclast activity assay. In the osteoclast differentiation assay, osteoclast precursor cells were cultured for 7 days in the presence of the test compound, and TRACP 5b released into the culture medium was determined at day 7 as an index of the number of osteoclasts formed. Cytotoxicity was determined by quantitating the amount of dying cells from the culture medium at day 2. In the osteoclast activity assay, the test compounds were added after osteoclast differentiation was completed at day 7, and the mature osteoclasts were cultured for an additional 3 days, allowing them to resorb bone. […] Medium CTX was measured at day 10 to quantitate bone resorption during days 7-10, and the results are expressed as the resorption index CTX at day 10/TRACP 5b at day 7, which describes the mean resorbing activity of a single osteoclast. Cytotoxicity was determined by quantitating the amount of dying cells from the culture medium at day 10.
The test compounds were added after osteoclast differentiation was completed at day 7, and the mature osteoclasts were cultured for an additional 3 days, allowing them to resorb bone. […] Medium CTX was measured at day 10 to quantitate bone resorption during days 7-10, and the results are expressed as the resorption index CTX at day 10/TRACP 5b at day 7, which describes the mean osteoclast activity. Cytotoxicity was determined by quantitating the amount of dying cells from the culture medium at day 10.

[4] = Homo sapiens, Osteoclast, read-out: Resorbing activity, % of activity compared with baseline group

C=CC[C@H]1C(=O)C(C)(C)[C@@H](O)CC(=O)O[C@H](c2ccc3sc(C)nc3c2)C[C@@H]2O[C@]2(C)CCC[C@H](C)[C@@H]1O [EPO-477, (1S,3S,7S,10R,11S,12S,16R)-7,11-dihydroxy-3-(2-methyl-benzothiazol-5-yl)-10-(prop-2-en-1-yl)-8,8,12,16-tetramethyl-4,17-dioxabicyclo[14.1.0]heptadecane-5,9-dione]
medium TRACP 5b activity at day 7 ([1]; 0.1 nM, Mean of 6 replicates, in U/L): 18.24 | medium TRACP 5b activity at day 7 ([1]; 0.1 nM, single replicate, in U/L): 14.72 and 16.43 and 21.41 and 17.57 and 17.37 and 21.95 | medium TRACP 5b activity at day 7 ([1]; 1 nM, Mean of 6 replicates, in U/L): 8.27 | medium TRACP 5b activity at day 7 ([1]; 1 nM, single replicate): 9.20 (2×) and 8.25 and 7.59 and 7.52 and 7.84 | medium TRACP 5b activity at day 7 ([1]; 10 nM, Mean of 6 replicates, in U/L): 2.45 | medium TRACP 5b activity at day 7 ([1]; 10 nM, single replicate, in U/L): 2.88 and 3.02 and 2.34 and 2.15 and 1.93 and 2.41 | resorption index CTX at day 10/TRACP 5b at day 7 (human osteoclasts [2]; 1 nM, Mean of 6 replicates): 3.31 | concentration of CTX released from bone collagen into the culture medium (human osteoclasts [2]; 1 nM, Mean of 6 replicates): 60.34 nM | concentration of CTX released from bone collagen into the culture medium (human osteoclasts [2]; 1 nM, single replicate): 56.56 nM and 68.03 nM and 54.94 nM and 58.62 nM and 61.84 nM and 62.04 nM | resorption index CTX at day 10/TRACP 5b at day 7 (human osteoclasts [2]; 1 nM, single replicate): 3.32 and 4.36 and 3.20 and 2.98 and 3.09 and 2.90 | resorption index CTX at day 10/TRACP 5b at day 7 (human osteoclasts [2]; 10 nM, Mean of 6 replicates): 1.14 | concentration of CTX released from bone collagen into the culture medium (human osteoclasts [2]; 10 nM, Mean of 6 replicates): 20.16 nM | concentration of CTX released from bone collagen into the culture medium (human osteoclasts [2]; 10 nM, single replicate): 10.31 nM and 31.82 nM and 15.76 nM and 16.61 nM and 29.41 nM and 17.07 nM | resorption index CTX at day 10/TRACP 5b at day 7 (human osteoclasts [2]; 10 nM, single replicate): 0.79 and 1.45 and 0.84 and 1.00 and 1.93 and 0.82 | resorption index CTX at day 10/TRACP 5b at day 7 (human osteoclasts [2]; 100 nM, Mean of 6 replicates): 0.78 | concentration of CTX released from bone collagen into the culture medium (human osteoclasts [2]; 100 nM, Mean of 6 replicates): 13.45 nM | concentration of CTX released from bone collagen into the culture medium (human osteoclasts [2]; 100 nM, single replicate): 15.63 nM and 14.51 nM and 11.55 nM and 16.48 nM and 6.70 nM and 15.83 nM | resorption index CTX at day 10/TRACP 5b at day 7 (human osteoclasts [2]; 100 nM, single replicate): 0.87 and 0.92 and 0.56 and 0.89 and 0.36 and 1.07 | activity at 0.0025 µM (human osteoclasts [2]; [4]): 95% | activity at 0.005 µM (human osteoclasts [2]; [4]): 103% | activity at 0.0075 µM (human osteoclasts [2]; [4]): 109% | activity at 0.01 µM (human osteoclasts [2]; [4]): 79% | activity at 0.015 µM (human osteoclasts [2]; [4]): 45% | activity at 0.02 µM (human osteoclasts [2]; [4]): 62% | activity at 0.05 µM (human osteoclasts [2]; [4]): 38% | luminescence released from dying cells during the culture period (human osteoclasts [3]; 1 nM, Mean of 6 replicates): 1864 | luminescence released from dying cells during the culture period (human osteoclasts [3]; 1 nM, single replicate): 2371 and 1802 and 1966 and 1781 and 1685 and 1577 | Cytotoxicity, % compared with baseline group (human osteoclasts [3]; 2.5 nM): 98% | Cytotoxicity, % compared with baseline group (human osteoclasts [3]; 5 nM): 96% | Cytotoxicity, % compared with baseline group (human osteoclasts [3]; 7.5 nM): 91% | luminescence released from dying cells during the culture period (human osteoclasts [3]; 10 nM, Mean of 6 replicates): 1957 | Cytotoxicity, % compared with baseline group (human osteoclasts [3]; 10 nM): 96% | luminescence released from dying cells during the culture period (human osteoclasts [3]; 10 nM, single replicate): 2193 and 2097 and 2126 and 1815 and 1909 and 1599 | Cytotoxicity, % compared with baseline group (human osteoclasts [3]; 15 nM): 79% | Cytotoxicity, % compared with baseline group (human osteoclasts [3]; 20 nM): 78% | Cytotoxicity, % compared with baseline group (human osteoclasts [3]; 50 nM): 85% | luminescence released from dying cells during the culture period (human osteoclasts [3]; 100 nM, Mean of 6 replicates): 2666 | luminescence released from dying cells during the culture period (human osteoclasts [3]; 100 nM, single replicate): 2837 and 2911 and 2428 and 2741 and 2112 and 2964
